Source: patent US12458688B2, “Epitopes” (Scancell Limited, priority 2018, dated 2025)

Columns and labels:
HLA-HHDII/DP4 mice = assay: Ex vivo IFNγ ELISpot after peptide immunisation, HHDII/DP4 mice; type: in vivo, mouse; conditions: for IFNγ ELISpot response: 3 immunisations with CpG/MPLA, day 21
Procedure: C57BL/6 mice (Charles River, UK), HLA-DR4 mice (Model #4149, Taconic, USA), HLA-A2/DR1 (HHDII/DR1, Pasteur Institute), HLA-A2.1+/+HLA-DP4+/+hCD4+/+ (HLA-HHDII/DP4) transgenic mice (EM: 02221, European Mouse Mutant Archive) described in patent WO2013/017545 A1 (EMMA repository, France) were used, aged between 8 and 12 weeks. Peptides were dissolved in PBS to 1 mg/ml and then emulsified (a series of dilutions) with CpG ODN 1826 and MPLA 6 μg/mouse of each (Invivogen, UK). Peptides (25 μg/mouse) were injected subcutaneously at the base of the tail. Mice were immunised at days 1, 7 and 14 for peptide immunisation. Spleens were removed for analysis at day 21 unless stated otherwise.
ELISpot assays were performed using murine IFNγ, IL-17 and IL-10 capture and detection reagents according to the manufacturer's instructions (Mabtech, Sweden). In brief, anti-IFNγ, IL-17 and IL-10 specific antibodies were coated onto wells of 96-well Immobilin-P plate. Synthetic peptides (at various concentrations) and 5×10^5 per well splenocytes were added to wells of the plate in quadruplicate Tumour target cells were added where relevant at 5×10^4/well in triplicate and plates incubated for 40 hrs at 37° C. After incubation, captured IFNγ, IL-10 and IL-17 were detected by biotinylated anti-IFNγ, IL-10 and IL-17 antibodies and developed with a streptavidin alkaline phosphatase and chromogenic substrate. Lipopolysaccharide (LPS; 5 μg/ml) was used as a positive control. For MHC blocking studies, anti-CD4 blocking antibody (GK1.5) or anti-CD4 blocking antibody (RPA-T4) for HHDII/DP4 mice which express human CD4 and anti-CD8 blocking antibody (2.43) from Bioxcell were used at 20 μg/ml. Spots were analysed and counted using an automated plate reader (Cellular Technologies Ltd).
Screening was performed to identify potential homocitrullinated ALDOA epitopes in transgenic HHDII/DP4 and HHDII/DR1 mice. Mice were immunised with pools of human homocitrullinated peptides. […] Each pool was administered as three immunisations containing 20 μg of each peptide and CpG/MPLA as an adjuvant. After 21 days the mice were culled and the immune responses to each peptide within the immunising pool were assessed by ex vivo ELISpot in HHDII/DP4 (FIG. 4b) and HHDII/DR1 mice (FIG. 4d). […] Our predictions therefore identified 3/5 peptides which could induce a T cell response. […] Of the responding peptides ALDOA 74-93 Hcit and 140-157 Hcit peptides are homologous in human and mice therefore these two peptides were selected for further investigation. Minimal IL-10 (FIG. 6b) or IL-17 (FIG. 6c) responses were seen to Aldolase peptides in HHDII/DP4 mice.
Using this combination of predictions, 5 CyK8 peptides containing homocitrulline were synthesised (Table 4). Screening was performed to identify potential homocitrullinated Cyk8 epitopes in transgenic HHDII/DP4. Mice were immunised with pools of human homocitrullinated peptides. […] Each pool was administered as three immunisations containing 20 μg of each peptide and CpG/MPLA as an adjuvant. After 21 days the mice were culled and the immune responses to each peptide within the immunising pool were assessed by ex vivo ELISpot in HHDII/DP4 (FIG. 10a). […] The responses to CyK8 101-120 Hcit, 112-131 Hcit, 182-201 Hcit, 371-388 Hcit and 381-399 Hcit immunisation were characterised for cross reactivity to the wt peptide sequence. […] Thus a key characteristic of immunogenic peptides is they express homocitrulline. All of these peptides (100%) were immunogenic. Thus a high predicted HLA-DP4 binding affinity (<30), the presence of homocitrulline residues in the core region, the peptide being amphipathic in nature with a predominantely spiral conformational structure upon 3D modelling, and the existence of homology between the mouse and human sequences defines immunogenicity. When this model was applied retrospectively to include the vimentin and ALDOA peptides 8/9 (88%) were correctly predicted. […]

[1] = test system: B16HHDII/iDP4 tumour cells; assay: Tumour therapy, B16HHDII/iDP4 tumour in HHDII/DP4 mice; type: in vivo, mouse; conditions: peptide with CpG/MPLA
Procedure: For tumour challenge experiments, mice were challenged with B16F1 cells s.c. on the right flank 3 days before primary immunisation (unless stated otherwise) and subsequently immunised as above. Tumour implants were carried out at dose of 2.5×10^4 cells/mouse for B16F1, 2.5×10^4 cells/mouse for B16F1 DR4, 4×10^5 cells/mouse for B16F1 HHDII/DP4, 5×10^5 cells/mouse for B16 HHDII/DR1, 1×10^5 cells/mouse for B16F1 HHDII/inducibleDP4, 5×10^4 cells/mouse for B16F1 inducible DR4. For studies involving depletion antibodies, 250 μg anti-mouse Ly6C antibody (clone Monts, BioXcell) was administered i.p. on days 8, 10, 12, 15, 17 and 19. 400 μg anti-mouse Ly6G antibody (clone 1A8, Biolegend) was administered i.p. on day 8 followed by 250 μg on days 11, 15 and 18. Anti-human CD4 antibody (clone OKT4, BioXcell) or anti-mouse CD8 antibody (clone 2.43, BioXcell) were administered at 500 μg dose on day 4 followed by 300 μg dose on days 8 and 11. Tumour growth was monitored twice weekly and mice were humanely euthanised once tumour reached ≥15 mm in diameter.
To provide further evidence for the role of CD4 T cell responses in tumour therapy HHDII/DP4 mice were implanted with B16HHDII/iDP4 tumour cells on day 1 and then immunised with peptides and CpG/MPLA on days 4, 8 and 11. Concurrent with peptide immunisation mice were also treated with CD4 or CD8 depleting antibody and tumour growth monitored. […] To show whether cyanate/isocyanic acid can cross cell membranes B16F1 melanoma cell line was cultured in vitro in the presence or absence of potassium cyanate which is in dynamic equilibrium with isocyanic acid. As a positive control lysates were also produced from in vitro cultured B16F1 cells and then treated with or without KCNO.

HLA-DP4 (human) [2] = target: HLA-DP4 (human)
Chain of HLA-DP4 (human) (P20036 29-260, chain 1 of 2): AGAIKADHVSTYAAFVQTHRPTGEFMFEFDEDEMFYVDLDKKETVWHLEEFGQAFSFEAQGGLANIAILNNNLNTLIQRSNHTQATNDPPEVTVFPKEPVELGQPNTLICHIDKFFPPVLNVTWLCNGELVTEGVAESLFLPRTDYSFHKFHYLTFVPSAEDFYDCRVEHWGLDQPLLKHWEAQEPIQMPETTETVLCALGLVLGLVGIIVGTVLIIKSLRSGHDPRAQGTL
Chain of HLA-DP4 (human) (P04440 30-258, chain 2 of 2, further chain): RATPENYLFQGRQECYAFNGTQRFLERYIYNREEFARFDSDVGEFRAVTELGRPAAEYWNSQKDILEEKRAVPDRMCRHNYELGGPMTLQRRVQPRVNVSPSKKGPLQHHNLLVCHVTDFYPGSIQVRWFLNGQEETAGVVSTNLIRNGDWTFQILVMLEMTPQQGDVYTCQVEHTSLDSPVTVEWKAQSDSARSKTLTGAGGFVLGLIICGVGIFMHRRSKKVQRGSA

HLA-DP4 (human) [3] = assay: DP4 competition ELISA; competitor biotinylated Hep B peptide; 10 ug unlabelled against 10 ug biotinylated Hep B
[4] = splenocytes after 7 days culture

Substance: A-Hcit-FINYV-Hcit-NCFRMTDQEAIQDL [NPM 266-287 Hcit]
- cross reactivity of Hcit response to wt peptide (HLA-HHDII/DP4 mice): significantly higher
- IFNγ ELISpot response (HLA-HHDII/DP4 mice): stimulation of IFNγ responses
- IFNγ response in presence of CD8 blocking antibody (HLA-HHDII/DP4 mice; [4]): lost
- tumour growth / survival vs control [1]: Significant prevention of tumour growth

Substance: Biotinylated Hep B 181-192 peptide
- OD (HLA-DP4 (human) [2]): 0.85 OD (450 nm)

Substance: FSLADAINTEF-Hcit-NTRTNE-Hcit-VELQ [Vimentin 86-108 Hcit]
- IFNγ ELISpot response (HLA-HHDII/DP4 mice): stimulation of IFNγ responses
- IFNγ response in presence of CD4 blocking antibody (HLA-HHDII/DP4 mice; [4]): loss of response
- tumour growth / survival vs control [1]: Significant prevention of tumour growth

Substance: GSHAGN-Hcit-LAMQEFMILPVGAA [Alpha enolase 156-176 Hcit]
- IFNγ ELISpot response (HLA-HHDII/DP4 mice): stimulation of IFNγ responses
- IFNγ response in presence of CD4 blocking antibody (HLA-HHDII/DP4 mice; [4]): lost
- tumour growth / survival vs control [1]: Significant prevention of tumour growth

Substance: Hep B 181-192 peptide (unlabelled)
- % inhibition (HLA-DP4 (human) [3]): 47%

Substance: RNELESYAYSL-Hcit-NQIGD-Hcit- [BiP 562-579 Hcit]
- cross reactivity of Hcit response to wt peptide (HLA-HHDII/DP4 mice): significantly higher
- IFNγ ELISpot response (HLA-HHDII/DP4 mice): stimulation of IFNγ responses
- IFNγ response in presence of CD4 blocking antibody (HLA-HHDII/DP4 mice; [4]): loss of response
- tumour growth / survival vs control [1]: Significant prevention of tumour growth
